Experimental data as given in patent US7695751B2 (priority 2004, dated 2010).
Values joined by “and” are separate entries in the source; they are usually repeats but may differ in a detail not shown here. Equal values may be shown once.

System: Salmonella Typhimurium strain TA98
Assay type: cell-based

Aflatoxin B1 [AFB1 control]
MR: 13.75 and 12.35
Number of mutant colonies/plate: 383 ± 65 colonies/plate
The number of mutant colonies/plate: 385 ± 97 colonies/plate
